As a reminder, the AC50 is the concentration at which the activity in the assay is half-maximal.

Consider 30 compounds from patent US20250171438A1 (Agios Pharmaceuticals, Inc., priority 2022, published 2025).

Where two headings read alike, the source gives them in different places.

For this assay, the target named is T1, human PAH with the R408W mutation (Homo sapiens, UniProt P00439, R408W).
T1 construct: expressed in transfected cells
T1 sequence (P00439 1-452 R408W): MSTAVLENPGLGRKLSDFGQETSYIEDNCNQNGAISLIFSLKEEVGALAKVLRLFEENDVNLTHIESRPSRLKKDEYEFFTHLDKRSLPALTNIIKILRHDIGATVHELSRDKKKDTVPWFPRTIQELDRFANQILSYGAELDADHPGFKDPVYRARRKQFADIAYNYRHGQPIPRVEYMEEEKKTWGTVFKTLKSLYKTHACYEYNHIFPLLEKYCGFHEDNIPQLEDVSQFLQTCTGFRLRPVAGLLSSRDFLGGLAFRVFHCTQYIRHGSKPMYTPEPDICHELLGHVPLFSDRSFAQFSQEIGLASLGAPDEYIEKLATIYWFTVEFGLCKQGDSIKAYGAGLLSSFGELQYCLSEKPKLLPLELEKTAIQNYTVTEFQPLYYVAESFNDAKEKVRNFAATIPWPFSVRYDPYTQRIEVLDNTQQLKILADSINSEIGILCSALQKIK
The assay is described as follows: Cell Based Phenylalanine Flux Assay. Also on record: scale not given here. The note with it: A375 cells expressing human R408W PAH, 13C-Tyrosine by LC-MS, average where tested multiple times.

The mark [1] stands for this setting: 24 hrs compound incubation, read-out: AC50.
Where [2] appears, read: 24 hrs with compound, read-out: AC50.

Turning to `O=C(c1nnc(C2CC(F)(F)C2)o1)N1CCc2[nH]cnc2[C@@H]1c1nc2c(F)cccc2s1` [Example 1891, (R)-(5-(3,3-difluorocyclobutyl)-1,3,4-oxadiazol-2-yl)(4-(4-fluorobenzo[d]thiazol-2-yl)-6,7-dihydro-1H-imidazo[4,5-c]pyridin-5(4H)-yl)methanone], under setting [1], the AC50 was 1 to 5 µM.

Consider `O=C(CC1CC1)N1CCc2[nH]cnc2[C@H]1c1nc2ccc(Cl)cc2[nH]1` [Example 954, (S)-1-(4-(6-chloro-1H-benzo[d]imidazol-2-yl)-6,7-dihydro-1H-imidazo[4,5-c]pyridin-5(4H)-yl)-2-cyclopropylethanone], for which, under setting [1], the AC50 is below 0.5 µM.

As for `Cc1ccc2c(C(=O)N3CCc4[nH]cnc4[C@@H]3c3nc4ccccc4s3)cnn2c1` [Example 1088, (R)-(4-(benzo[d]thiazol-2-yl)-6,7-dihydro-1H-imidazo[4,5-c]pyridin-5(4H)-yl)(6-methylpyrazolo[1,5-a]pyridin-3-yl)methanone], the concentration at half-maximal activity (AC50) under setting [1] was above 5 µM.

As to `O=C(c1nccs1)N1CCc2[nH]cnc2[C@@H]1c1nc2cccc(F)c2s1` [Example 1102, (R)-(4-(7-fluorobenzo[d]thiazol-2-yl)-6,7-dihydro-1H-imidazo[4,5-c]pyridin-5(4H)-yl)(thiazol-2-yl)methanone], the half-maximal activity concentration (AC50) under setting [1] was 1 to 5 µM.

For the compound `NC(=O)c1nc(-c2ccccn2)oc1C(=O)N1CCc2[nH]cnc2C1c1nc2ccccc2s1` (stereo not drawn), the half-maximal activity concentration (AC50) result (24 hrs with compound) is given as “E, E”.

Consider `Cn1cc(-c2ncc(C(=O)N3CCc4[nH]cnc4[C@H]3c3nc4ccccc4s3)s2)c(C2CC2)n1` [Example 1385], for which the AC50 under setting [1] was below 0.5 µM.

Consider `Cc1ccc2sc([C@@H]3c4nc[nH]c4CCN3C(=O)c3cncs3)nc2c1` [Example 1293, (S)-(4-(5-methylbenzo[d]thiazol-2-yl)-6,7-dihydro-1H-imidazo[4,5-c]pyridin-5(4H)-yl)(thiazol-5-yl)methanone], for which the AC50 under setting [1] was 0.5 to 1 µM.

As to `Cc1nc(CCCN2CC(F)C2)oc1C(=O)N1CCc2[nH]cnc2[C@@H]1c1nc2ccccc2s1` [Example 1672, (R)-(4-(benzo[d]thiazol-2-yl)-6,7-dihydro-1H-imidazo[4,5-c]pyridin-5(4H)-yl)(2-(3-(3-fluoroazetidin-1-yl)propyl)-4-methyloxazol-5-yl)methanone], the AC50 under setting [1] was above 5 µM.

As for `O=C(c1cnn2ccccc12)N1CCc2[nH]cnc2[C@H]1c1nc2cccc(Br)c2s1` [Example 1335, (S)-(4-(7-bromobenzo[d]thiazol-2-yl)-6,7-dihydro-1H-imidazo[4,5-c]pyridin-5(4H)-yl)(pyrazolo[1,5-a]pyridin-3-yl)methanone], the half-maximal activity concentration (AC50) under setting [1] was below 0.5 µM.

For `O=C(c1cnn2cc(Br)ccc12)N1CCc2[nH]cnc2C1c1nc2cc(F)ccc2s1` (stereo not drawn), the AC50 under setting [2] is 1 to 5 µM.

As for `O=C(c1cnn2c(Br)cccc12)N1CCc2[nH]cnc2[C@@H]1c1nc2ccc(F)cc2s1` [Example 1150, (R)-(7-bromopyrazolo[1,5-a]pyridin-3-yl)(4-(6-fluorobenzo[d]thiazol-2-yl)-6,7-dihydro-1H-imidazo[4,5-c]pyridin-5(4H)-yl)methanone], the AC50 under setting [1] is above 5 µM.

Turning to “(R)-(5-(difluoromethyl)-1-methyl-1H-pyrazol-4-yl)(4-(4-fluorobenzo[d]thiazol-2-yl)-6,7-dihydro-1H-imidazo[4,5-c]pyridin-5(4H)-yl)methanone [Example 1744]”, the AC50 under setting [1] was 1 to 5 µM.

As to `O=C(CCc1nccs1)N1CCc2[nH]cnc2C1c1nc2ccc(F)cc2[nH]1` (stereo not drawn), under setting [2], the AC50 lay in the range of 1 to 5 µM.

Regarding `Cc1nc([C@H](C)O)oc1C(=O)N1CCc2[nH]cnc2[C@H]1c1nc2c(F)cccc2s1` [Example 1911, ((S)-4-(4-fluorobenzo[d]thiazol-2-yl)-6,7-dihydro-1H-imidazo[4,5-c]pyridin-5(4H)-yl)(2-((S)-1-hydroxyethyl)-4-methyloxazol-5-yl)methanone], the AC50 under setting [1] is 0.5 to 1 µM.

For the compound `O=C(c1ncn2ccccc12)N1CCc2[nH]cnc2C1c1nc2ccc(Cl)cc2[nH]1` (stereo not drawn), the AC50 under setting [2] is above 5 µM.

As for `C[C@@H](O)c1nc(C(F)F)c(C(=O)N2CCc3[nH]cnc3[C@H]2c2nc3c(F)cccc3s2)o1` [Example 1980, (4-(difluoromethyl)-2-((R)-1-hydroxyethyl)oxazol-5-yl) ((S)-4-(4-fluorobenzo[d]thiazol-2-yl)-6,7-dihydro-1H-imidazo[4,5-c]pyridin-5(4H)-yl)methanone], under setting [1], the half-maximal activity concentration (AC50) is below 0.5 µM.

Take `O=C(c1nnc(-n2cccn2)o1)N1CCc2[nH]cnc2[C@H]1c1nc2ccccc2s1` [Example 1792]: the AC50 under setting [1] was below 0.5 µM.

Turning to `Fc1ccc(-c2nnc(N3CCc4[nH]cnc4[C@@H]3c3nc4ccccc4s3)o2)cc1` [Example 1492, (R)-2-(4-(benzo[d]thiazol-2-yl)-6,7-dihydro-1H-imidazo[4,5-c]pyridin-5(4H)-yl)-5-(4-fluorophenyl)-1,3,4-oxadiazole], under setting [1], the AC50 fell in the range of 0.5 to 1 µM.

Consider `Cc1nc(C(=O)N2CCc3[nH]cnc3C2c2nc3ccccc3s2)n(C)n1` (stereo not drawn), for which, under setting [2], the half-maximal activity concentration (AC50) was above 5 µM.

Consider `O=C(c1nnc(-c2ccc(C(F)(F)F)cc2)o1)N1CCc2[nH]cnc2[C@@H]1c1nc2ccccc2s1` [Example 1767, (R)-(4-(benzo[d]thiazol-2-yl)-6,7-dihydro-1H-imidazo[4,5-c]pyridin-5(4H)-yl)(5-(4-(trifluoromethyl)phenyl)-1,3,4-oxadiazol-2-yl)methanone], for which the AC50 under setting [1] lay within 1 to 5 µM.

`c1ccc2sc([C@@H]3c4nc[nH]c4CCN3CC3CC3)nc2c1` (single isomer, unassigned): the AC50 under setting [2] lay in the range of 1 to 5 µM.

Turning to `Cc1nnc(CC(=O)N2CCc3[nH]cnc3C2c2nc3ccc(F)cc3s2)s1` (stereo not drawn), the AC50 under setting [2] is above 5 µM.

On to `O=C(c1cn[nH]c1C(F)F)N1CCc2[nH]cnc2[C@@H]1c1nc2ccccc2s1` [Example 1858, (R)-(4-(benzo[d]thiazol-2-yl)-6,7-dihydro-1H-imidazo[4,5-c]pyridin-5(4H)-yl)(5-(difluoromethyl)-1H-pyrazol-4-yl)methanone], for which the AC50 under setting [1] is 1 to 5 µM.

Take `Cn1nc(C(F)F)cc1C(=O)N1CCc2[nH]cnc2[C@H]1c1nc2c(F)cccc2s1` [Example 1731, (S)-(3-(difluoromethyl)-1-methyl-1H-pyrazol-5-yl)(4-(4-fluorobenzo[d]thiazol-2-yl)-6,7-dihydro-1H-imidazo[4,5-c]pyridin-5(4H)-yl)methanone]: the AC50 under setting [1] was below 0.5 µM.

`O=C(CCc1nccs1)N1CCc2[nH]cnc2C1c1nc2cc(F)ccc2s1` (stereo not drawn): the AC50 under setting [2] is 1 to 5 µM.

On to `O=C(Cc1nccs1)N1CCc2[nH]cnc2C1c1nc2ccc(Br)cc2[nH]1` (stereo not drawn), for which, under setting [2], the AC50 lay in the range of 1 to 5 µM.

On to `O=C(c1cnn2cccc(F)c12)N1CCc2[nH]cnc2[C@H]1c1nc2cc(F)ccc2s1` (single isomer, unassigned), for which the half-maximal activity concentration (AC50) under setting [2] fell in the range of 1 to 5 µM.

Consider `CN(C)CCc1ccc2c(C(=O)N3CCc4[nH]cnc4[C@@H]3c3nc4c(F)cccc4s3)cnn2c1` [Example 1600, (R)-(6-(2-(dimethylamino)ethyl)pyrazolo[1,5-a]pyridin-3-yl)(4-(4-fluorobenzo[d]thiazol-2-yl)-6,7-dihydro-1H-imidazo[4,5-c]pyridin-5(4H)-yl)methanone], for which the half-maximal activity concentration (AC50) under setting [1] lay in the range of 1 to 5 µM.

In the case of `O=C(c1cnco1)N1CCc2[nH]cnc2[C@H]1c1nc2cccc(F)c2s1` [Example 1247, (S)-(4-(7-fluorobenzo[d]thiazol-2-yl)-6,7-dihydro-1H-imidazo[4,5-c]pyridin-5(4H)-yl)(oxazol-5-yl)methanone], under setting [1], the AC50 was 1 to 5 µM.

With `O=C(Cc1nc(C(F)(F)F)cs1)N1CCc2[nH]cnc2C1c1nc2ccc(Br)cc2[nH]1` (stereo not drawn), the half-maximal activity concentration (AC50) under setting [2] was in the range of 1 to 5 µM.
